From US7074769B2, “Oligonucleotide inhibitors of bcl-xL” (The Trustees of Columbia University in the City of New York, priority 1998, dated 2006)

Test system: bcl-xL transfected LNCaP cells
Assay: Drug treatment of bcl-xL transfected and parental LNCaP cells
Format: cell-based, human
Details: for apoptosis induction: parental LNCaP cells or neomycin-expressing control-transfected LNCaP cells; for concentration up to which bcl-xL overexpressing LNCaP clones were resistant: treatment for 24 h
Description: LNCaP cells transfected with the neomycin-selectable pSFFV/bcl-xL plasmid or with a control, neomycin-resistant expression vector pSFFV. Aliquots containing 10 μg of plasmid and 5 μg of lipofectin reagent (Life technologies, Inc., Gaithersburg, Md.) in serum-free OPTI-MEM (Life Technologies, Inc.) were added to cultured cells. The transfection media was replaced 4 h later with RPMI-10% FBS medium. Individual colonies were selected from these plates after approximately 3–4 weeks of routine maintenance in RPMI-10% FBS containing 0.6 mg/ml G418 sulfate (Geneticin, Life Technologies, Inc.). The bcl-xL-transformed LNCaP cells were cultured in RPMI-10% FBS, supplemented with 0.3 mg/ml G418 sulfate in 5% CO2 atmosphere.
Two clones of LNCaP cells overexpressing bcl-xL protein (1072-4 and 1072-5) have been obtained after transfection of wild type LNCaP cells with the plasmid vector pSFFV/bcl-xL and lipofectin. Also a mock transfectant clone of LNCaP cells carrying neo® resistance gene (1072-3) was used for the control experiments. […] Western blot analysis for bcl-xL protein was performed as described above. […] For the Northern blot analysis, the total RNA was isolated from the cells using TRIZOL reagent (GIBCO BRL), and 20 μg aliquotes were separated in RNA-formaldehyde gel, blotted onto nylon membranes (Schleicher & Schull), UV-linked and prehybridized for two hours at 42° C. in the standard hybridization solution. Then the blot was hybridized overnight with the PCR-amplified fragment of human bcl-xL cDNA at 42° C. Dcl-xL coding fragment was amplified from pSFFV/bcl-xL plasmid using bcl-x specific primers. The primer sequences were: bcl-x-upstream, 5′-[…]-3′ (SEQ ID NO:36); and bcl-x-downstream, 5′-[…]-3′ (SEQ ID NO:37). Twenty five cycles of amplification were performed in DNA Thermal Cycler (Perkin-Elmer, Norwalk, Conn.) at 94° C. (30 sec), 55° C. (30 sec), and 72° C. (30 sec). The PCR products were analysed on a 1.2% agarose gel. The resultant fragment was labeled by random primer method to the specific activity 10^7 cpm/ng of the probe and used for the hybridization. After washings blots were autoradiographed for 24h at −80° C. Blots were stripped of radioactivity and reprobed with a ^32P-labeled G3PDH probe to confirm the equal loading.
Clonal derivatives of bcl-xL transfected LNCaP cells that were overexpressing high amounts of bcl-xL protein were resistant to taxol (up to 100 nM) and mitoxantrone (up to 4 μM) treatment for 24 h. […] This finding strongly supports the hypothesis that bcl-xL gene product is a factor in the development of chemotherapy resistance in hormone-refractory prostate cancer.

Row | SMILES | apoptosis induction | concentration up to which bcl-xL overexpressing LNCaP clones were resistant
1 | O=C1c2c(O)ccc(O)c2C(=O)c2c(NCCNCCO)ccc(NCCNCCO)c21 [mitoxantrone] | induce apoptosis | up to 4 μM
2 | CC(=O)O[C@H]1C(=O)[C@@]2(C)[C@H]([C@H](OC(=O)c3ccccc3)[C@]3(O)C[C@H](OC(=O)[C@H](O)[C@@H](NC(=O)c4ccccc4)c4ccccc4)C(C)=C1C3(C)C)[C@]1(OC(C)=O)CO[C@@H]1C[C@@H]2O [taxol] | induce apoptosis | up to 100 nM
